Laboratory results published in US8975246B2, “Bile acid or bile salt fatty acid conjugates” (Galmed Research and Development Ltd., priority 2001, dated 2015).

Key:
Format in all cases: in vivo
[1] = tested on: human patients; assay: Human study: change in glucose; design: Change from Baseline in Glucose, Mean / Change from Baseline in Glucose, Median / Change from Baseline in Glucose, Max: unit not given here
Protocol: (§1) The effects of BAFACs on disorders associated with Fatty liver, insulin resistance and altered glucose metabolism were tested on 60 human patients. Experiments were subdivided to 2 dosage regimens: Aramchol 300 mg daily (high dose) and 100 mg daily (low dose) respectively for a total period time of 3 months. The Aramchol:placebo ratio is of 2:1 for the low dose arm, and 1:1 for the high dose arms.
(§2) The study period included a 3 month treatment period with Aramchol low dose, or Aramchol high dose, or placebo, and a one month follow-up period. Aramchol was given daily orally. During the treatment period, all patients attended periodic […] (at first month) and subsequently monthly study-center visits in order to assess safety and efficacy of the treatment.
(§3) The results are shown using two known in the art principle statistical evaluation on, Intention-To-Treat (ITT) and Per Protocol (PP) populations. The ITT principle asserts that the effect of a treatment policy can be best assessed by evaluation on the basis of the intention to treat a subject (i.e. the planned treatment regimen) rather than the actual treatment given. It has the consequence that subjects allocated to a treatment group should be followed up, assessed and analyzed as members of that group irrespective of their compliance to the planned course of treatment. […] Compliance covers such considerations as exposure to treatment, availability of measurements and absence of major protocol violations.

[2] = tested on: human patients; assay: Human study: change in adiponectin; design: Change in Adiponectin from Baseline, Mean / Change in Adiponectin from Baseline, Median / Change in Adiponectin from Baseline, Max: unit not given here; details: for Change in Adiponectin from Baseline, Max / Change in Adiponectin from Baseline, Mean / Change in Adiponectin from Baseline, Median / Change in Adiponectin from Baseline, Min: 3 months
Protocol: as §1, §2, §3

[3] = tested on: Inbred C57J/L male mice; assay: Serum cholesterol of mice on lithogenic diet
Protocol: Inbred C57J/L male mice (Jackson Lab., Maine, USA) 4-6 weeks old weighing 20-25 gm were used. They were given their regular diet supplemented with (% w/w) Butter fat 15, Cholesterol 1, Cholic Acid 0.5, Corn Oil 2 (modified from Khanuia et al., Proc. Natnl. Acad. Sci. USA 1995; 92:7729-33) for 4-8 weeks (Lithogenic diet #2). Half of the group were given 3β-arachidylamido-7α,12α-dihydroxy-5β-cholan-24-oic acid at a dose of 150 mg/kg/day suspended in saline by intragastric gavage. The other half were similarly given an equal volume of saline. After 4-8 weeks the animals were anesthetized, heart blood was drawn for analysis. The liver and other organs were removed. Serum cholesterol levels were determined by autoanalyzer.
Another group of C57 J/L male inbred mice (Jackson Laboratories, Maine, USA) 4-6 weeks old weighing 20-25 gm. were given a lithogenic diet (No. 2) for 8 weeks and then a regular diet for another 8 weeks. During the 8 weeks of the regular diet part of the animals were given 3β-arachidylamido-7α,12α-dihydroxy-5β-cholan-24-oic acid by intragastric gavage at a dose of 150 mg/kg/day. After a total of 16 weeks the animals were anesthetized, heart blood was drawn for analysis. Liver and other organs were removed. Serum cholesterol levels were analyzed as above. A third group of animals were given a regular diet throughout the 16 weeks and then similarly analyzed.

[4] = Aramchol 100 mg/d, Visit 3, ITT
[5] = Aramchol 100 mg/d, Visit 4, ITT
[6] = Aramchol 100 mg/d, Visit 5, ITT
[7] = Aramchol 100 mg/d, Visit 6, ITT
[8] = Aramchol 100 mg/d, Visit 7, ITT
[9] = Aramchol 300 mg/d, Visit 3, ITT
[10] = Aramchol 300 mg/d, Visit 4, ITT
[11] = Aramchol 300 mg/d, Visit 5, ITT
[12] = Aramchol 300 mg/d, Visit 6, ITT
[13] = Aramchol 300 mg/d, Visit 7, ITT

Compound: CCCCCCCCCCCCCCCCCCCC(=O)N[C@H]1CC[C@@]2(C)[C@@H](C1)C[C@@H](O)[C@@H]1[C@@H]2C[C@H](O)[C@]2(C)[C@@H]([C@H](C)CCC(=O)O)CC[C@@H]12 [Aramchol, 3β-arachidylamido-7α,12α-dihydroxy-5β-cholan-24-oic acid]
- Change from Baseline in Glucose, Max [1, 4]: 17.0
- Change from Baseline in Glucose, Mean [1, 4]: −2.0
- Change from Baseline in Glucose, Median [1, 4]: 0.0
- Change from Baseline in Glucose, Min [1, 4]: −38.0
- Change from Baseline in Glucose, Max [1, 5]: 16.0
- Change from Baseline in Glucose, Mean [1, 5]: −2.2
- Change from Baseline in Glucose, Median [1, 5]: 1.0
- Change from Baseline in Glucose, Min [1, 5]: −33.0
- Change from Baseline in Glucose, Max [1, 6]: 21.0
- Change from Baseline in Glucose, Mean [1, 6]: −1.0
- Change from Baseline in Glucose, Median [1, 6]: 0.5
- Change from Baseline in Glucose, Min [1, 6]: −30.0
- Change from Baseline in Glucose, Max [1, 7]: 39.0
- Change from Baseline in Glucose, Mean [1, 7]: −1.1
- Change from Baseline in Glucose, Median [1, 7]: −2.0
- Change from Baseline in Glucose, Min [1, 7]: −32.0
- Change from Baseline in Glucose, Max [1, 8]: 23.0
- Change from Baseline in Glucose, Mean [1, 8]: 0.8
- Change from Baseline in Glucose, Median [1, 8]: −1.0
- Change from Baseline in Glucose, Min [1, 8]: −41.0
- Change from Baseline in Glucose, Max [1, 9]: 19.0
- Change from Baseline in Glucose, Mean [1, 9]: −1.3
- Change from Baseline in Glucose, Median [1, 9]: 1.0
- Change from Baseline in Glucose, Min [1, 9]: −32.0
- Change from Baseline in Glucose, Max [1, 10]: 16.0
- Change from Baseline in Glucose, Mean [1, 10]: −2.4
- Change from Baseline in Glucose, Median [1, 10]: −1.5
- Change from Baseline in Glucose, Min [1, 10]: −24.0
- Change from Baseline in Glucose, Max [1, 11]: 18.0
- Change from Baseline in Glucose, Mean [1, 11]: −3.3
- Change from Baseline in Glucose, Median [1, 11]: −5.0
- Change from Baseline in Glucose, Min [1, 11]: −46.0
- Change from Baseline in Glucose, Max [1, 12]: 13.0
- Change from Baseline in Glucose, Mean [1, 12]: −2.0
- Change from Baseline in Glucose, Median [1, 12]: −2.5
- Change from Baseline in Glucose, Min [1, 12]: −22.0
- Change from Baseline in Glucose, Max [1, 13]: 82.0
- Change from Baseline in Glucose, Mean [1, 13]: 3.8
- Change from Baseline in Glucose, Median [1, 13]: 3.0
- Change from Baseline in Glucose, Min [1, 13]: −22.0
- glucose levels (in words) ([1]; Aramchol 300 mg/d, tested subjects, Table 7): remarkably reduces glucose levels
- Change in Adiponectin from Baseline, Max ([2]; Aramchol 100 mg/d oral, ITT): 11.1
- Change in Adiponectin from Baseline, Mean ([2]; Aramchol 100 mg/d oral, ITT): −3.4
- Change in Adiponectin from Baseline, Median ([2]; Aramchol 100 mg/d oral, ITT): −2.7
- Change in Adiponectin from Baseline, Min ([2]; Aramchol 100 mg/d oral, ITT): −46.3
- Change in Adiponectin from Baseline, Max ([2]; Aramchol 100 mg/d oral, PP): 11.1
- Change in Adiponectin from Baseline, Mean ([2]; Aramchol 100 mg/d oral, PP): −3.4
- Change in Adiponectin from Baseline, Median ([2]; Aramchol 100 mg/d oral, PP): −2.3
- Change in Adiponectin from Baseline, Min ([2]; Aramchol 100 mg/d oral, PP): −46.3
- Change in Adiponectin from Baseline, Max ([2]; Aramchol 300 mg/d oral, ITT): 41.7
- Change in Adiponectin from Baseline, Mean ([2]; Aramchol 300 mg/d oral, ITT): 1.8
- Change in Adiponectin from Baseline, Median ([2]; Aramchol 300 mg/d oral, ITT): −1.3
- Change in Adiponectin from Baseline, Min ([2]; Aramchol 300 mg/d oral, ITT): −28.0
- Change in Adiponectin from Baseline, Max ([2]; Aramchol 300 mg/d oral, PP): 41.7
- Change in Adiponectin from Baseline, Mean ([2]; Aramchol 300 mg/d oral, PP): 1.8
- Change in Adiponectin from Baseline, Median ([2]; Aramchol 300 mg/d oral, PP): −1.3
- Change in Adiponectin from Baseline, Min ([2]; Aramchol 300 mg/d oral, PP): −28.0
- levels of adiponectin (in words) ([2]; Aramchol 300 mg/d, tested subjects, Tables 5 and 6): increases the levels of adiponectin
- Serum Cholesterol (mean + StD) ([3]; Lithogenic diet 2 + BAFAC II 150 mg/kg/day by gavage, 4 W): 143 (19.8) mg %
- Serum Cholesterol (mean + StD) ([3]; Lithogenic diet 2 + BAFAC II 150 mg/kg/day by gavage, 6 W): 125 (10.8) mg %
- Serum Cholesterol (mean + StD) ([3]; Lithogenic diet 2 + BAFAC II 150 mg/kg/day by gavage, 8 W): 139 (0.7) mg %
- Serum Cholesterol (mean + StD) ([3]; Lithogenic diet 2 for 8 W then regular diet 8 W with BAFAC II 150 mg/kg/day, total 16 W): 65 (6.8) mg %
